Patent US20260293949A1, “CARBONATION SENSATION IMPARTING OR ENHANCING AGENT” (TAKASAGO INTERNATIONAL CORPORATION, priority 2022, published 2026)

Experiments:
Assay type in all cases: in vivo
[1] = Sensory evaluation of fizziness enhancement in carbonated water (WILKINSON TANSAN), specialized panelists; conditions: for Fizziness enhancement evaluation result: average score of seven panelists, 1 to 5
Protocol: (§1) In the following Examples, the action and effect were verified using a value obtained by calculating an average score of scores for imparting or enhancing fizziness by sensory evaluation conducted by specialized panelists. The expression “1 point” in the evaluation is the evaluation in the case where no component is added at all (no addition).
Diethyl sebacate (manufactured by Inoue Perfumery Mfg. Co., Ltd., the same applies to the following Examples) was separately added to “WILKINSON (registered trademark) TANSAN (manufactured by Asahi Soft Drinks Co., Ltd.)” so as to reach the concentrations shown in Table 2 below, and sensory evaluation was performed by seven specialized panelists to determine the extent to which fizziness was enhanced as compared with a control in which diethyl sebacate was not added.
Diisobutyl adipate (manufactured by Inoue Perfumery Mfg. Co., Ltd., the same applies to the following Examples) was separately added to “WILKINSON (registered trademark) TANSAN (manufactured by Asahi Soft Drinks Co., Ltd.)” so as to reach the concentrations shown in Table 3 below, and sensory evaluation was performed by seven specialized panelists to determine the extent to which fizziness was enhanced as compared with a control in which diisobutyl adipate was not added.
Dimethyl sebacate (manufactured by Tokyo Chemical Industry Co., Ltd.) was separately added to “WILKINSON (registered trademark) TANSAN (manufactured by Asahi Soft Drinks Co., Ltd.)” so as to reach the concentrations shown in Table 4 below, and sensory evaluation was performed by seven specialized panelists to determine the extent to which fizziness was enhanced as compared with a control in which dimethyl sebacate was not added.
Dipropyl adipate (manufactured by Tokyo Chemical Industry Co., Ltd.) was separately added to “WILKINSON (registered trademark) TANSAN (manufactured by Asahi Soft Drinks Co., Ltd.)” so as to reach the concentrations shown in Table 5 below, and sensory evaluation was performed by seven specialized panelists to determine the extent to which fizziness was enhanced as compared with a control in which dipropyl adipate was not added.

[2] = Sensory evaluation of fizziness enhancement in cider-flavored carbonated beverage; conditions: for Fizziness enhancement evaluation result: average score of seven panelists, 1 to 5
Protocol: as §1
Diethyl sebacate was separately added to “Mitsuya Cider (registered trademark) Zero Strong (manufactured by Asahi Soft Drinks Co., Ltd.)” so as to reach the concentrations shown in Table 6 below, and sensory evaluation was performed by seven specialized panelists to determine the extent to which fizziness was enhanced as compared with a control in which diethyl sebacate was not added.

[3] = Sensory evaluation of fizziness enhancement in carbonated grapefruit flavored Chu-Hi; conditions: for Fizziness enhancement evaluation result: carbonated Chu-Hi, average score of seven panelists, 1 to 5
[4] = Sensory evaluation of fizziness enhancement in beer-flavored beverage; conditions: for Fizziness enhancement evaluation result: beer-flavored beverage, average score of seven panelists, 1 to 5
Protocol: as §1
Diethyl sebacate was separately added to “Asahi Dry Zero (registered trademark) (manufactured by Asahi Breweries, Ltd.)” so as to reach the concentrations shown in Table 8 below, and sensory evaluation was performed by seven specialized panelists to determine the extent to which fizziness was enhanced as compared with a control in which diethyl sebacate was not added.

[5] = Sensory evaluation of carbonation sensation imparting in black tea beverage with fruit juice; conditions: for Carbonation sensation imparting evaluation result: average score of seven panelists
Protocol: as §1
Diethyl sebacate was separately added to “Afternoon Tea Apple Tea Plus (registered trademark) (manufactured by Kirin Beverage Co., Ltd.)” so as to reach the concentrations shown in Table 9 below, and sensory evaluation was performed by seven specialized panelists to determine the extent to which fizziness was imparted as compared with a control in which diethyl sebacate was not added.

[6] = Sensory evaluation of carbonation sensation imparting in cola-flavored compressed tablet candy; conditions: for Carbonation sensation imparting evaluation result: compressed tablet candy, average score of six panelists, 1 to 5
Protocol: as §1
Diethyl sebacate was separately added to a cola-flavored compressed tablet candy prepared according to the formulation shown in Table 14 using a pestle with a diameter of 7 mm, so as to reach a concentration shown in Table 15 below, and sensory evaluation was performed by six panelists to determine the extent to which fizziness was imparted as compared with a control in which diethyl sebacate was not added.

[7] = Sensory evaluation of carbonation sensation imparting in cider-flavored frozen dessert; conditions: for Carbonation sensation imparting evaluation result: average score of seven panelists, 1 to 5
Protocol: as §1
Diethyl sebacate was separately added to a cider-flavored frozen dessert prepared according to the formulation shown in Table 16 so as to reach a concentration shown in Table 17 below, and sensory evaluation was performed by seven panelists to determine the extent to which fizziness was imparted as compared with a control in which diethyl sebacate was not added.

[8] = carbonated grapefruit flavored Chu-Hi
[9] = carbonated beer-flavored beverage

## CCOC(=O)CCCCCCCCC(=O)OCC [Diethyl sebacate, diethyl sebacate]
[1]
  amelioration of mouthfeel (in words): effect of ameliorating the mouthfeel was also confirmed
  fizziness enhancement (in words): fizziness of carbonated water can be enhanced
[1]; 0.1 ppm
  Fizziness enhancement evaluation result: 1.1 points
[1]; 0.3 ppm
  Fizziness enhancement evaluation result: 2.1 points
[1]; 1 ppm
  Fizziness enhancement evaluation result: 3.7 points
[1]; 5 ppm
  Fizziness enhancement evaluation result: 4.6 points
[1]; 10 ppm
  Fizziness enhancement evaluation result: 4.5 points
[1]; 20 ppm
  Fizziness enhancement evaluation result: 2.5 points
[1]; 50 ppm
  Fizziness enhancement evaluation result: 2.1 points
[1]; 100 ppm
  Fizziness enhancement evaluation result: 1.7 points
[2]
  amelioration of mouthfeel (in words): effect of ameliorating the mouthfeel was also confirmed
  fizziness enhancement (in words): fizziness of the cider-flavored carbonated beverage can be enhanced
[2]; 0.1 ppm
  Fizziness enhancement evaluation result: 1.3 points
[2]; 0.3 ppm
  Fizziness enhancement evaluation result: 1.9 points
[2]; 1 ppm
  Fizziness enhancement evaluation result: 3.7 points
[2]; 5 ppm
  Fizziness enhancement evaluation result: 3.9 points
[2]; 10 ppm
  Fizziness enhancement evaluation result: 3.7 points
[2]; 20 ppm
  Fizziness enhancement evaluation result: 3.6 points
[2]; 50 ppm
  Fizziness enhancement evaluation result: 3.3 points
[2]; 100 ppm
  Fizziness enhancement evaluation result: 1.1 points
[3]; 0.1 ppm
  Fizziness enhancement evaluation result: 1.1 points
[3]; 0.3 ppm
  Fizziness enhancement evaluation result: 1.7 points
[3]; 1 ppm
  Fizziness enhancement evaluation result: 4.0 points
[3]; 5 ppm
  Fizziness enhancement evaluation result: 4.0 points
[3]; 10 ppm
  Fizziness enhancement evaluation result: 3.9 points
[3]; 20 ppm
  Fizziness enhancement evaluation result: 3.4 points
[3]; 50 ppm
  Fizziness enhancement evaluation result: 2.6 points
[3]; 100 ppm
  Fizziness enhancement evaluation result: 1.3 points
[3]; [8]
  amelioration of mouthfeel (in words): effect of ameliorating the mouthfeel was also confirmed
  fizziness enhancement (in words): fizziness of the carbonated grapefruit flavored Chu-Hi can be enhanced
[4]; 0.1 ppm
  Fizziness enhancement evaluation result: 1.1 points
[4]; 0.3 ppm
  Fizziness enhancement evaluation result: 1.6 points
[4]; 1 ppm
  Fizziness enhancement evaluation result: 2.7 points
[4]; 5 ppm
  Fizziness enhancement evaluation result: 2.9 points
[4]; 10 ppm
  Fizziness enhancement evaluation result: 2.7 points
[4]; 20 ppm
  Fizziness enhancement evaluation result: 2.7 points
[4]; 50 ppm
  Fizziness enhancement evaluation result: 1.9 points
[4]; 100 ppm
  Fizziness enhancement evaluation result: 1.1 points
[4]; [9]
  amelioration of mouthfeel (in words): effect of ameliorating the mouthfeel was also confirmed
  fizziness enhancement (in words): fizziness of the carbonated beer-flavored beverage can be enhanced
[5]
  amelioration of mouthfeel (in words): effect of ameliorating the mouthfeel was also confirmed
[5]; 0.1 ppm, 1 (almost no fizziness) to 5 (extremely imparted)
  Carbonation sensation imparting evaluation result: 1.1 points
[5]; 0.3 ppm, 1 to 5
  Carbonation sensation imparting evaluation result: 1.3 points
[5]; 1 ppm, 1 to 5
  Carbonation sensation imparting evaluation result: 1.9 points
[5]; 5 ppm, 1 to 5
  Carbonation sensation imparting evaluation result: 2.7 points
[5]; 10 ppm, 1 to 5
  Carbonation sensation imparting evaluation result: 2.9 points
[5]; 20 ppm, 1 to 5
  Carbonation sensation imparting evaluation result: 1.7 points
[5]; 50 ppm, 1 to 5
  Carbonation sensation imparting evaluation result: 1.7 points
[5]; 100 ppm, 1 to 5
  Carbonation sensation imparting evaluation result: 1.1 points
[5]; contains no carbon dioxide
  fizziness imparting (in words): fizziness can be imparted to a black tea beverage with fruit juice
[6]; 0.1 ppm
  Carbonation sensation imparting evaluation result: 1.5 points
[6]; 1 ppm
  Carbonation sensation imparting evaluation result: 2.2 points
[6]; 10 ppm
  Carbonation sensation imparting evaluation result: 2.5 points
[6]; 100 ppm
  Carbonation sensation imparting evaluation result: 4.0 points
[6]; 1000 ppm
  Carbonation sensation imparting evaluation result: 3.0 points
[6]; 10000 ppm
  Carbonation sensation imparting evaluation result: 1.5 points
[6]; 20000 ppm
  Carbonation sensation imparting evaluation result: 1.2 points
[6]; compressed tablet candies
  amelioration of mouthfeel (in words): effect of ameliorating the mouthfeel was also confirmed
  fizziness imparting (in words): fizziness can be imparted to compressed tablet candies
[7]
  amelioration of mouthfeel (in words): effect of ameliorating the mouthfeel was also confirmed
  fizziness imparting (in words): fizziness can be imparted to the cider-flavored frozen dessert
[7]; 0.1 ppm
  Carbonation sensation imparting evaluation result: 1.4 points
[7]; 0.3 ppm
  Carbonation sensation imparting evaluation result: 1.9 points
[7]; 1 ppm
  Carbonation sensation imparting evaluation result: 2.1 points
[7]; 5 ppm
  Carbonation sensation imparting evaluation result: 3.6 points
[7]; 10 ppm
  Carbonation sensation imparting evaluation result: 4.5 points
[7]; 20 ppm
  Carbonation sensation imparting evaluation result: 3.6 points
[7]; 50 ppm
  Carbonation sensation imparting evaluation result: 2.7 points
[7]; 100 ppm
  Carbonation sensation imparting evaluation result: 1.4 points
